Source: ChEMBL document CHEMBL5316263, “Structure-Based Discovery of Selective Histone Deacetylase 8 Degraders with Potent Anticancer Activity” (J Med Chem, 2023)
Activity calls are given as the source filed them. The rule behind the calls is not given here.

Columns and labels:
A549 [1] = assay: Induction of apoptosis in human A549 cells assessed as late apoptotic cells at 10 uM incubated for 72 hrs by annexin V-FITC staining based flow cytometry (reference value: 0.048%); format: functional
A549 [2] = assay: Antitumor activity against human A549 cells xenografted in NOD/SCID mouse at 5 mg/kg, ip administered every 5 days measured at day 30 followed by irradiation; format: functional, organism-based; details: time 30.0 day
A549 [3] = assay: Effect on MAFK gene in human A549 cells at 10 uM measured after 20 hrs by RNA sequencing analysis; format: functional, cell-based
A549 [4] = assay: Inhibition of HDAC8 foci formation in human A549 cells measured after 20 hrs by DAPI staining based immunofluorescence assay; format: functional, cell-based; details: dose 0.5-8 µM
A549 [5] = assay: Effect on HDAC8 mRNA level in human A549 cells at 10 uM measured after 20 hrs by RNA sequencing analysis; format: functional, cell-based
[6] = biological target: T1, Protein cereblon/Histone deacetylase 8 (Homo sapiens) (UniProt Q9BY41+Q96SW2); assay: Protac activity at CRBN/HDAC8 in human A549 cells assessed as reduction in HDAC8 protein levels at 10 uM measured after 16 hrs by Western blot analysis; format: cell-based
T1 sequence (Q96SW2 whole entry, looked up, one chain of several): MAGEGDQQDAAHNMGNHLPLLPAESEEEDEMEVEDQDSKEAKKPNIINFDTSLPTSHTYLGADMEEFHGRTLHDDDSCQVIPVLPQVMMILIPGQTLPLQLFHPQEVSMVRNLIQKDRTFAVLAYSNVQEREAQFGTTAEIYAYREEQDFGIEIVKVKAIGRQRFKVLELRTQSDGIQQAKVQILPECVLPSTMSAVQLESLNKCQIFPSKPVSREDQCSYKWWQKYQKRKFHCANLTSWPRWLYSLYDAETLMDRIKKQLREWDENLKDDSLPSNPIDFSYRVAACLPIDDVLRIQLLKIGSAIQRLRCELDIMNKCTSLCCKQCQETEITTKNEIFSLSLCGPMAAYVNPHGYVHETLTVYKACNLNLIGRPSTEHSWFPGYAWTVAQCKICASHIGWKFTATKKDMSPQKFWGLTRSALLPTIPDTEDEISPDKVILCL

A549 [7] = assay: Inhibition of DNA damage repair in human A549 cells assessed as reduction in number of gamma-H2AX foci at 5 uM incubated for 24 hrs followed by irradiation for 4 hrs by immunofluorescence staining based analysis; format: functional, cell-based
A549 [8] = assay: Induction of apoptosis in human A549 cells assessed as viable cells at 20 uM incubated for 72 hrs by annexin V-FITC staining based flow cytometry (reference value: 99.9%); format: functional; details: read-out: Activity
A549 [9] = assay: Induction of apoptosis in human A549 cells assessed as viable cells at 5 uM incubated for 72 hrs by annexin V-FITC staining based flow cytometry (reference value: 99.9%); format: functional; details: read-out: Activity
A549 [10] = assay: Induction of apoptosis in human A549 cells assessed as late apoptotic cells at 20 uM incubated for 72 hrs by annexin V-FITC staining based flow cytometry (reference value: 0.048%); format: functional
[11] = biological target: T1, Protein cereblon/Histone deacetylase 8 (Homo sapiens); assay: Protac activity at CRBN/HDAC8 in human A549 cells assessed as maximum degradation at 10 uM incubated for 20 hrs by ELISA method relative to control; format: cell-based
A549 [12] = assay: Induction of apoptosis in human A549 cells assessed as early apoptotic cells at 10 uM incubated for 72 hrs by annexin V-FITC staining based flow cytometry (reference value: 0.099%); format: functional
A549 [13] = assay: Downregulation of COMMD1 in human A549 cells measured after 20 hrs by proteomic analysis; format: functional, cell-based
[14] = biological target: Protein cereblon/Protein deacetylase HDAC6 (Homo sapiens) (UniProt Q9UBN7+Q96SW2); assay: Protac activity at CRBN/HDAC6 in human A549 cells assessed as reduction in HDAC6 protein level at 0.1 to 10 uM by Western blot analysis; format: cell-based; details: dose 0.1-10 µM
Sequence of Protein cereblon/Protein deacetylase HDAC6 (Homo sapiens) (Q96SW2 whole entry, looked up): as the sequence (Q96SW2 whole entry, looked up, one chain of several) above
Sequence of Protein cereblon/Protein deacetylase HDAC6 (Homo sapiens) (Q9UBN7 whole entry, looked up): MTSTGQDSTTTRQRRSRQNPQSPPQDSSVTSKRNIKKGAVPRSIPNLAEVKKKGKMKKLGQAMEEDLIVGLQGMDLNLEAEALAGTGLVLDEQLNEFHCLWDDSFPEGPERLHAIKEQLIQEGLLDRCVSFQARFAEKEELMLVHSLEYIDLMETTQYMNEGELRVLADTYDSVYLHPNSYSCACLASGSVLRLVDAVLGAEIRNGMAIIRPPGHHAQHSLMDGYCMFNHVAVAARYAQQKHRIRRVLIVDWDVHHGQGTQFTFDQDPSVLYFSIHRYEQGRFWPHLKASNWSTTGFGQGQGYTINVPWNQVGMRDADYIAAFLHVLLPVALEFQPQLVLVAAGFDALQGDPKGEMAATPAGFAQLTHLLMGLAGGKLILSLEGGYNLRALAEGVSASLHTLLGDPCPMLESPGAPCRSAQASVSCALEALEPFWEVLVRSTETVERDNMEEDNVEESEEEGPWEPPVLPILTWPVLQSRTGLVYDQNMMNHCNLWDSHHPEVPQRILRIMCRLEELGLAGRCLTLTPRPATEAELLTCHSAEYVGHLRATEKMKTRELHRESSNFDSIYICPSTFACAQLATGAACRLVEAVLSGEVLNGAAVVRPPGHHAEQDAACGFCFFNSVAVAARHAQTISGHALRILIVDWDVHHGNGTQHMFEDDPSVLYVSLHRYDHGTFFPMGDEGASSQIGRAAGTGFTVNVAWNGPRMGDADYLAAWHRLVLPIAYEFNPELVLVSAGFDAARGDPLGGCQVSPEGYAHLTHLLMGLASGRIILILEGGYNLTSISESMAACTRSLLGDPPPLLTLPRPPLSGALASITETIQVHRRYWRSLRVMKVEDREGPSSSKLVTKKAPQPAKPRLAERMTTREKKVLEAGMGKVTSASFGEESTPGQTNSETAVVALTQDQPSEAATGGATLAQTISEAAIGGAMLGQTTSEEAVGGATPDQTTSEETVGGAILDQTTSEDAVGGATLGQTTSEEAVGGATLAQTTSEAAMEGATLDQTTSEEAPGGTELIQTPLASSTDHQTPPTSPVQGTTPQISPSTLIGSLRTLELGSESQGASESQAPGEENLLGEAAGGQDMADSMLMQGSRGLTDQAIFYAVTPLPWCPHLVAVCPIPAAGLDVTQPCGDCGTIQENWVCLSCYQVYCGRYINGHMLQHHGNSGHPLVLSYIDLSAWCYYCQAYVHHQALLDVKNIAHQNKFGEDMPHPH

[15] = Toxicity in NOD/SCID mouse xenografted with human A549 cells assessed as change in body weight loss at 5 mg/kg, ip administered every 5 days measured at day 30; format: organism-based; details: in vivo, 720 h, time 30 day
A549 [16] = assay: Induction of cell cycle arrest in human A549 cells assessed as accumulation of cells at G2/M phase at 20 uM measured after 72 hrs by propidium iodide staining based flow cytometry analysis; format: functional
[17] = biological target: T1, Protein cereblon/Histone deacetylase 8 (Homo sapiens); assay: Protac activity at CRBN/HDAC8 in human A549 cells assessed as reduction in HDAC8 protein level at 10 uM by Western blot analysis relative to control; format: cell-based; parameters: scale not given: the % may be the effect or the level left
A549 [18] = assay: Inhibition of DNA damage repair in human A549 cells assessed as reduction in Ku70 protein level at 5 uM incubated for 24 hrs by immunofluorescence staining based analysis; format: functional, cell-based
[19] = biological target: T1, Protein cereblon/Histone deacetylase 8 (Homo sapiens); assay: Protac activity at CRBN/HDAC8 in human MDA-MB-231 cells assessed as decrease in SMAD3 protein level at 0.1 to 10 uM by Western blot analysis; format: cell-based; details: dose 0.1-10 µM
A549 [20] = assay: Induction of apoptosis in human A549 cells assessed as late apoptotic cells at 2.5 uM incubated for 72 hrs by annexin V-FITC staining based flow cytometry (reference value: 0.048%); format: functional
[21] = biological target: T1, Protein cereblon/Histone deacetylase 8 (Homo sapiens); assay: Protac activity at CRBN/HDAC8 in human A549 cells assessed as degradation of HDAC8 at 2 uM measured after 20 hrs by Western blot analysis relative to control; format: cell-based
[22] = biological target: Protein cereblon/NAD-dependent protein deacetylase sirtuin-7 (Homo sapiens) (UniProt Q9NRC8+Q96SW2); assay: Protac activity at CRBN/Sirt7 in human A549 cells assessed as reduction in Sirt7 protein level at 0.1 to 10 uM by Western blot analysis; format: cell-based; details: dose 0.1-10 µM
Sequence of Protein cereblon/NAD-dependent protein deacetylase sirtuin-7 (Homo sapiens) (Q96SW2 whole entry, looked up): as the sequence (Q96SW2 whole entry, looked up, one chain of several) above
Sequence of Protein cereblon/NAD-dependent protein deacetylase sirtuin-7 (Homo sapiens) (Q9NRC8 whole entry, looked up): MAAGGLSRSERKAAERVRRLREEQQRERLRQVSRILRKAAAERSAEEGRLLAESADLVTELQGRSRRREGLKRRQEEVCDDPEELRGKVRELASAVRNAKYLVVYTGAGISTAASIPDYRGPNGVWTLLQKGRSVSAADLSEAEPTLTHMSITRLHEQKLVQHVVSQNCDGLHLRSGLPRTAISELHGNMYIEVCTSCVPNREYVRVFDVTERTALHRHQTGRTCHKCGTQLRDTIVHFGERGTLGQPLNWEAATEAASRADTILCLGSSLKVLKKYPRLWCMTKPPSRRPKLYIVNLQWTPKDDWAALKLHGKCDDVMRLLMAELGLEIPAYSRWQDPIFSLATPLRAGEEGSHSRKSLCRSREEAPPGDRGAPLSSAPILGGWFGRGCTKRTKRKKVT

A549 [23] = assay: Induction of cell cycle arrest in human A549 cells assessed as accumulation of cells at G2/M phase at 5 uM measured after 48 hrs by propidium iodide staining based flow cytometry analysis; format: functional
A549 [24] = assay: Effect on OASL gene in human A549 cells at 10 uM measured after 20 hrs by RNA sequencing analysis; format: functional, cell-based
[25] = biological target: Protein cereblon/Histone deacetylase 9 (Homo sapiens) (UniProt Q9UKV0+Q96SW2); assay: Protac activity at CRBN/HDAC9 in human A549 cells assessed as degradation of HDAC9 at 0.1 to 10 uM by Western blot analysis; format: cell-based; details: dose 0.1-10 µM
Sequence of Protein cereblon/Histone deacetylase 9 (Homo sapiens) (Q96SW2 whole entry, looked up): as the sequence (Q96SW2 whole entry, looked up, one chain of several) above
Sequence of Protein cereblon/Histone deacetylase 9 (Homo sapiens) (Q9UKV0 whole entry, looked up): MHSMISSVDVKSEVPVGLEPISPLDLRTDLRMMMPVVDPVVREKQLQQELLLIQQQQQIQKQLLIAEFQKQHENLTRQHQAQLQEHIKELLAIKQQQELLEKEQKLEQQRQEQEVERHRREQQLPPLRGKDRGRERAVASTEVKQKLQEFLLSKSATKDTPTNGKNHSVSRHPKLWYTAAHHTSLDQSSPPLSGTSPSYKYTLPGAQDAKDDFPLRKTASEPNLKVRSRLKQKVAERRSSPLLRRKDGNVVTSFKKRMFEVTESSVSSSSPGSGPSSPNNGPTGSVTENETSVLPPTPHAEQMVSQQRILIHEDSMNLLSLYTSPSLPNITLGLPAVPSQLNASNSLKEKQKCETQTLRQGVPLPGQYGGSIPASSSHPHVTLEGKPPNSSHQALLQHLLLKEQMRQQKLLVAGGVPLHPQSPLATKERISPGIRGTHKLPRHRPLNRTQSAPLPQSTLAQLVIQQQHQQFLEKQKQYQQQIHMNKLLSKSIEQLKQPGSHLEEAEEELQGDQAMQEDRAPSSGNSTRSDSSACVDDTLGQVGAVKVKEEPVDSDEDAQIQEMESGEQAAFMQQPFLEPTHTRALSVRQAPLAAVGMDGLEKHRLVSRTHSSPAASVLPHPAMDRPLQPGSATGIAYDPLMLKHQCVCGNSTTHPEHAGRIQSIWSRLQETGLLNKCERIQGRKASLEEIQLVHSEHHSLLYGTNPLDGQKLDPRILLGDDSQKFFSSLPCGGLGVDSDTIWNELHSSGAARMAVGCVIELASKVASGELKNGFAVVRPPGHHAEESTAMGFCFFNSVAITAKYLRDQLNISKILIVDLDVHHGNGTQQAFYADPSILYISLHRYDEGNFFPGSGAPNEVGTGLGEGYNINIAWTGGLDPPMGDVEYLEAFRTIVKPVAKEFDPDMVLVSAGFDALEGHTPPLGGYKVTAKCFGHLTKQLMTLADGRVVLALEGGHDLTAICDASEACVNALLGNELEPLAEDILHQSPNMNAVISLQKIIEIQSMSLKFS

A549 [26] = assay: Inhibition of DNA damage repair in human A549 cells assessed as reduction in Ku80 protein level at 5 uM incubated for 24 hrs by immunofluorescence staining based analysis; format: functional, cell-based
A549 [27] = assay: Induction of apoptosis in human A549 cells assessed as early apoptotic cells at 5 uM incubated with compound followed by irradiation by annexin V-FITC staining based flow cytometry (reference value: 6.26%); format: functional
[28] = biological target: T2, Histone deacetylase 8 (Homo sapiens) (UniProt Q9BY41); assay: Induction of degradation in HDAC8 in human A549 cells incubated for 20 hrs by proteomic analysis; format: cell-based
T2 sequence (whole entry): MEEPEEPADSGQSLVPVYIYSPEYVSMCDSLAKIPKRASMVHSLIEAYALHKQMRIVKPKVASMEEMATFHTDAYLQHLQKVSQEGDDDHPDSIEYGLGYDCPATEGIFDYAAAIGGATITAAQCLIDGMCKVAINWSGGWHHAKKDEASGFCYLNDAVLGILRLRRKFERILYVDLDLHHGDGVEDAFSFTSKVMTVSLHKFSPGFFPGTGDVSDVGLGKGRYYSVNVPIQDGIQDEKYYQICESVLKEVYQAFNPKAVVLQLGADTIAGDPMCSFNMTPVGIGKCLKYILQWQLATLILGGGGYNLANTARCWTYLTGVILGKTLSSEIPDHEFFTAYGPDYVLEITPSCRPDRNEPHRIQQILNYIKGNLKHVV

HCT-116 = assay: Inhibition of colony formation in SiRNA mediated HDAC8 knockdown human HCT-116 cells assessed as decrease in cell proliferation at 2.5 to 10 uM measured after 7 to 10 days with media replenishment along with compound for every 3 days by crystal violet staining based analysis; format: functional; details: dose 2.5-10 µM, time 7-10 day
[29] = biological target: Protein cereblon/Histone deacetylase 1 (Homo sapiens) (UniProt Q13547+Q96SW2); assay: Protac activity at CRBN/HDAC1 in human A549 cells assessed as reduction in HDAC1 protein level at 0.1 to 10 uM by Western blot analysis; format: cell-based; details: dose 0.1-10 µM
Sequence of Protein cereblon/Histone deacetylase 1 (Homo sapiens) (Q13547 whole entry, looked up): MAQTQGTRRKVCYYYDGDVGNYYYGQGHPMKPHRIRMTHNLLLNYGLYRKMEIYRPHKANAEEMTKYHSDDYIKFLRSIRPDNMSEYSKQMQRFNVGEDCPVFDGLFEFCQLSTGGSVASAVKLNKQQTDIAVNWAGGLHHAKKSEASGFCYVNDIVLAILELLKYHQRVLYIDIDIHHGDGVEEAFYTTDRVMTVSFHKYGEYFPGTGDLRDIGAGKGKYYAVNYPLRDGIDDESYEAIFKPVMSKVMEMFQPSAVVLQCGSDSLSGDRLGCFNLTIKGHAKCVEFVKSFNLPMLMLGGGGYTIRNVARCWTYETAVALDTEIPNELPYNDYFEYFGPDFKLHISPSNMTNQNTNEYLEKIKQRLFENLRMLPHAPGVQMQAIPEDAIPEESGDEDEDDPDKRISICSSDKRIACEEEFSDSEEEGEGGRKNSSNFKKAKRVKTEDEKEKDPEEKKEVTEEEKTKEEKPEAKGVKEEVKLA
Sequence of Protein cereblon/Histone deacetylase 1 (Homo sapiens) (Q96SW2 whole entry, looked up): as the sequence (Q96SW2 whole entry, looked up, one chain of several) above

With `O=C1CCC(N2C(=O)c3cccc(NCc4cn(CCOCCOc5ccc(Cn6ccc7ccc(C(=O)NO)cc76)cc5)nn4)c3C2=O)C(=O)N1` (stereo not given) the Activity (A549 [1]) was 22.2%, the Activity (A549 [2]) was “Active” and the Activity (A549 [3]) was “Active”. For the same compound, the inhibition (A549 [4]) was “Dose-Dependent Effect”, the Activity (A549 [5]) was “inactive” and the Activity [6] was “Active”. For the same compound, the inhibition (A549 [7]) was “Active”, the viability at 20 µM (A549 [8]) was 6.84% and the viability at 5 µM (A549 [9]) was 54.9%. It also gave an Activity (A549 [10]) of 22.7%, an Emax [11] of over 95% and an Activity (A549 [12]) of 23.5%. For the same compound, the Activity (A549 [13]) was “Active”, the Activity [14] was “inactive” and the Activity [15] was “Non-Toxic”. The Activity (A549 [16]) was “inactive”, the Activity [17] was over 90% and the inhibition (A549 [18]) was “Active”. For the same compound, the Activity [19] was “Active”, the Activity (A549 [20]) was 15.3% and the Activity [21] was 85.4%. For the same compound, the Activity [22] was “inactive”, the Activity (A549 [23]) was “Active” and the Activity (A549 [24]) was “Active”. For the same compound, the Activity [25] was “inactive”, the inhibition (A549 [26]) was “Active” and the Activity (A549 [27]) was 26.7%. The Activity [28] was “Active”, the inhibition (HCT-116) was “Active” and the Activity [29] was “inactive”.
